Literature values in publication PMC13109691 (Environmental and Molecular Mutagenesis, 2026).

Settings: source not stated

- Lipophilicity (logP): 3.79
SMILES: COc1ccc(C(=O)c2ccccc2)c(O)c1 [Oxybenzone]
